This is an account of results in publication PMC7112239, “Latency reversal agents modulate HIV antigen processing and presentation to CD8 T cells” (PLoS Pathogens, 2020).

Series [1] has as its system post-proteasomal aminopeptidases. The series is described as follows: Aminopeptidase hydrolytic activity in live CD4 T cells (fluorogenic H-Leu-AMC). Type of series: cell-based, human. As to conditions: live primary CD4 T cells of healthy donors, 48 h treatment, versus DMSO; Bryostatin 10 nM, Panobinostat 30 nM; 50 μM H-Leu-AMC, 37°C; n = 8. The procedure:
(§1) Romidepsin, Bryostatin, Disulfiram (Sigma), Ingenol-3-angelate (Santa Cruz Biotechnologies), Panobinostat (Selleckchem) were dissolved in DMSO (Fisher Scientific) to make stock solutions. Fresh aliquots were used for each experiment. The final concentrations for each LRA in cell culture were as follows: Panobinostat (30 nM), Romidepsin (40 nM), Disulfiram (500 nM), Bryostatin (10 nM), Ingenol-3-angelate (50 nM). Maximum in vitro stimulation was achieved by addition of anti-CD3/CD28 magnetic beads (Fisher Scientific) at a ratio of 1:1 bead to T cell as in [37]. For combination treatment, both drugs were added at the same time.
The proteasome hydrolytic activities caspase-like (50 μM Z-LLE-AMC; EMD Millipore), tryptic (50 μM Boc-LRR-AMC; Bachem), chymotryptic (50 μM Suc-LLVY-AMC; Bachem), post-proteasomal aminopeptidases (50 μM H-Leu-AMC; Bachem) were measured in 25x10^3 live CD4 T cells at given time points after drug treatment with peptidase-specific fluorogenic substrates as in [37, 40]. […] The rate of fluorescence emission, which is proportional to the proteolytic activity, was measured every 600 s at 37°C in a Victor-3 Plate Reader (Perkin Elmer), as in [37].

In series [2] the test system is CD4 T cell extracts (antigen processing machinery). The series is described as follows: In vitro degradation of HIV-1 Gag p24-10-35m in extracts of LRA-treated CD4 T cells, mass spectrometry. As to conditions: for HLA-B57 KF11 epitope production: LRA-treated extracts over matched DMSO, n = 6–10 donors. Type of series: biochemical, human. The procedure:
as §1
(§2) 2 nmol of pure peptide (MGH peptide core facility or Biosynthesis, Texas) was degraded with 15 ug of CD4 T cell extracts at 37°C in pH7.4 degradation buffer as in [37, 40]. Aliquots were taken at various time points and the reaction was stopped by addition of 5% (v/v) of Formic acid (Thermo Scientific) and the degradation products were purified by trichloroacetic acid (Sigma) precipitation (final concentration 5% (v/v)) and identified by in-house mass spectrometry as previously described. Briefly, equal amounts of the purified degradation products were injected into a NanoLC Ultra-HPLC (Eksigent) for salt removal and separation, then online nanosprayed into an LTQ Orbitrap Discovery mass spectrometer (Thermo) for identification. Peptides were separated in a NanoLC column (ChromXP C18, 3 um 120Å; Eksigent) over a gradient of 2–60% buffer B (buffer A: 0.1% (v/v) formic acid in MS-grade water (Fisher Scientific)); buffer B: 0.1% (v/v) formic acid in MS-grade acetonitrile (Fisher Scientific) in 95 min with a conserved flow rate of 250 nl/min. Mass spectra were recorded in the 370–2000 Daltons range. In the tandem mass spectrometry mode, the eight most intense peaks were selected with a window of 1 Dalton and fragmented using helium as collision gas and a voltage of 35 V. Peaks in the mass spectra were searched against the source peptide databases with Proteome Discoverer (version 1.3; Thermo) and quantitatively analyzed. For a given peptide, the integrated area under the peak is proportional to the relative abundance of the peptide in the sample. Each sample was run on the mass spectrometer at least twice.

For series [3] the test system is unchanged. Description: In vitro degradation of HIV-1 Gag p24-161-24m in extracts of LRA-treated CD4 T cells, mass spectrometry. Type of series: biochemical, human. The protocol: as §1, §2
For series [4], the system named is HIV-infected HLA-B57+ CD4 T cells. The series is described as follows: Endogenous processing and presentation assay: CD107a degranulation of epitope-specific CD8 T cells and peptide equivalent. Type of series: cell-based, human. The conditions noted are these: for score of peptide presentation efficiency (peptide equivalent over HIV infection rate) at 24 hours / equivalent peptide presented (TW10, ISW9, KF11) at 24 hpi: 24 hpi; for score of peptide presentation efficiency (peptide equivalent over HIV infection rate) at 24 hours: all 3 epitopes; for equivalent peptide presented (TW10, ISW9, KF11) at 24 hpi: radar plots.

Another series deals with proteasome. As to conditions: cited from earlier work. The text has this:
Most LRAs selected so far to relieve transcriptional blocks act on signaling pathways and histone acetylation but are not specific to HIV LTR promoters or targeted to the reservoirs, thus their effect should be considered globally on genes and cellular machineries of cell populations.

The subject of a further series is primary CD4 T cells. The series is described as follows: CD25 and CD69 surface activation markers by flow cytometry. Type of series: cell-based, human. The conditions noted are these: 6, 24 and 48 h post treatment. The protocol:
as §1
Untreated or LRA-treated CD4 T cells were stained with CD4-BV605, CD3-Pacific Blue (BD Biosciences) and HLA-ABC-AlexaFluor700 (Biolegend) to assess purity (95–99%) and CD38-FITC, CD69-PE, CD25-PerCpCy5.5 and HLA-DR-APC (BD Biosciences) to measure surface activation marker levels. Cellular activation levels were calculated by first gating on the double negative population of CD25 and CD69 of the non-treated sample on live, CD4- and CD3-positive cells and applying the same gates to the LRA-treated and CD3/CD28-stimulated samples as done in [37]. A similar gating strategy was applied to determine the proportion of CD38- and HLA-DR-positive CD4 T cells.

The conditions of series [5]: cited from earlier work. The text has this:
We similarly assessed the processing of another HIV fragment, p24-161-24mer, after LRAs or aCD3/CD28 treatments (Fig 3A).

Setting [6] is: extracts of CD4 T cells treated 48 h, 120-minute degradation, representative experiment.
The mark [7] stands for this setting: over matched DMSO, n = 8–11 healthy donors.

Where no end group is shown, it is not given here.

On to `CCC/C=C/C=C/C(=O)O[C@H]1/C(=C/C(=O)OC)C[C@H]2C[C@H]([C@@H](C)O)OC(=O)C[C@H](O)C[C@@H]3C[C@H](OC(C)=O)C(C)(C)[C@](O)(C[C@@H]4C/C(=C/C(=O)OC)C[C@H](/C=C/C(C)(C)[C@]1(O)O2)O4)O3` [Bryostatin], for which the “aminopeptidase hydrolytic activities, average fold change” value in series [1] came to 1.6 fold. Also, the “amount of fragments starting at V2, V15, V17 of p24-10-35m” value in series [2] (setting [6]) is recorded as “reduced”. Also, the “difference in amount of 8-11aa peptides of p24-10-35m versus DMSO- or Panobinostat-treated extracts” value in series [2] (second half of the sequence, representative experiment) is recorded as “up to 5 times”. Besides, in series [3] (first half of the sequence, representative experiment), the “increase of production of 8-11aa peptides in p24-161-24m” value was 2- to 5 fold. Besides, the “ratio of 8-11aa peptides of p24-161-24m produced in treated over DMSO treated cells” value in series [3] (n = 4–10 donors) is on record as “significantly increased”. In addition, in series [3] (setting [7]), the “number of significantly changed N- or C-terminal cleavage sites, p24-161-24mer” value is reported as 6. In series [4], the “score of peptide presentation efficiency (peptide equivalent over HIV infection rate) at 24 hours” value is reported as “lowest” and the “equivalent peptide presented (TW10, ISW9, KF11) at 24 hpi” value is “among the lowest”. The “efficiency of peptide presentation overtime” value in series [4] (24 to 72 hpi) is “increased”. In the series on proteasome, the “proteasome activities in fibroblasts” value was “can enhance proteasome activities”.

For `CCN(CC)C(=S)SSC(=S)N(CC)CC` [Disulfiram], the “proportion of CD25+ and/or CD69+ primary CD4 T cells compared to DMSO-treated cells” value in the series with primary CD4 T cells is “Neither HDACi nor disulfiram changed the proportion”. Further, the “HLA-B57 KF11 epitope production” value in series [2] is “decreased”. Moreover, in series [2] (treated extracts over matched DMSO, n = 2–6 donors), the QW11 epitope production entry is recorded as “increased”. The “proteasome activities in cell lines” value in the series on proteasome (effect on NF-κB) is reported as “inhibited proteasome activities”.

`CC[C@H](C)[C@H](NC(=O)[C@@H](NC(=O)[C@H](CCC(=O)O)NC(=O)[C@@H]1CCCN1C(=O)[C@H](CO)NC(=O)[C@H](Cc1ccccc1)NC(=O)[C@H](C)NC(=O)[C@@H](N)CCCCN)C(C)C)C(=O)N1CCC[C@H]1C(=O)N[C@@H](CCSC)C(=O)N[C@@H](Cc1ccccc1)C(=O)O` [KF11]: the “degradability in the cytosol of primary cells” value in series [5] is “less degradable”.

For the molecule `Cc1[nH]c2ccccc2c1CCNCc1ccc(/C=C/C(=O)NO)cc1` [Panobinostat], the “aminopeptidase hydrolytic activities, average fold change” value in series [1] was determined as 0.78 fold. The “HLA-B57 KF11 epitope production” value in series [2] is recorded as “unchanged”. For the same molecule, the “amount of fragments starting at V2, V15, V17 of p24-10-35m” value in series [2] (setting [6]) is listed as “increased”. Further, the “reduction of fragments starting at H3 or N12 of p24-10-35m” value in series [2] (extracts of CD4 T cells treated 48 h, 120-minute degradation, representative experiment, versus DMSO) is 10 fold. In addition, in series [2] (treated extracts over matched DMSO, n = 4–9 donors), the “HLA-B57 ISW9 epitope production” value is recorded as “increased”. Further, the “peptide production at each aa of p24-161-24mer” value in series [3] (setting [7]) is “decreased peptide production at most aa”. In addition, the “production of 8-11aa peptides throughout the p24-161-24m sequence” value in series [3] (representative experiment) is “reduced”. In addition, in series [4], the “KF11 and ISW9 peptide equivalent displayed by HIV-infected CD4 T cells” value is “reduction of peptide presentation”; the “score of peptide presentation efficiency (peptide equivalent over HIV infection rate) at 24 hours” value is reported as “second highest”; the “equivalent peptide presented (TW10, ISW9, KF11) at 24 hpi” value is “highest KF11 and ISW9 peptide presentations”.

Consider ISPRTLNAW [ISW9], for which the “degradability in the cytosol of primary cells” value in series [5] is “among the most degradable”.
